According to ChEMBL document CHEMBL4346659, “Design, synthesis and evaluation of novel 7H-pyrrolo[2,3-d]pyrimidin-4-amine derivatives as potent, selective and reversible Bruton's tyrosine kinase (BTK) inhibitors for the treatment of rheumatoid arthritis” (Eur J Med Chem, 2019):

Columns and labels:
JeKo-1 = assay: Antiproliferative activity against human JeKo1 cells; type: functional, cell-based; settings: Homo sapiens, JeKo-1
Daudi = assay: Antiproliferative activity against human Daudi cells; type: functional, cell-based; settings: Homo sapiens, Daudi
[1] = target: T1, Tyrosine-protein kinase BTK (Homo sapiens, UniProt Q06187); assay: Inhibition of BTK (unknown origin) at 1 uM in the presence of ATP by caliper mobility shift assay relative to control
T1 sequence (Q06187 whole entry): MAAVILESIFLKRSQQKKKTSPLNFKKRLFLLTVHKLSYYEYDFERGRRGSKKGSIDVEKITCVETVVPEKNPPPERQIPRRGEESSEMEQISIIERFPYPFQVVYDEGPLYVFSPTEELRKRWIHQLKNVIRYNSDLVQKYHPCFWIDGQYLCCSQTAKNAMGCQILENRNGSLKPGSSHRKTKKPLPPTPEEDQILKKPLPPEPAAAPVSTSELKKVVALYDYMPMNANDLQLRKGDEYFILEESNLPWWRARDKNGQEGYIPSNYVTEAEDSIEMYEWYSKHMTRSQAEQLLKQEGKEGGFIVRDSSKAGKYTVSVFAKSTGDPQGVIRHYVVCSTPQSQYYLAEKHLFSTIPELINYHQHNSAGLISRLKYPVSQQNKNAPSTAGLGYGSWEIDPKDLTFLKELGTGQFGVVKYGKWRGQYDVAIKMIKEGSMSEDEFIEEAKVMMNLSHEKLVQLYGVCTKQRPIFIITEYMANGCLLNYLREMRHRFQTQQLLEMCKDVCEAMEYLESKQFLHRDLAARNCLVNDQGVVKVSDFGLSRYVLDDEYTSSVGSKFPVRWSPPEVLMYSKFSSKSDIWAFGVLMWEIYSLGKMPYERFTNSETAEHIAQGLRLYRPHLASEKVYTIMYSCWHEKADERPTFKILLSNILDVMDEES

Ramos = assay: Antiproliferative activity against human Ramos cells; type: functional, cell-based; settings: Homo sapiens, Ramos
[2] = target: T1, Tyrosine-protein kinase BTK; assay: Inhibition of BTK (unknown origin) at 0.1 uM in the presence of ATP by caliper mobility shift assay relative to control

Compound: Nc1ncnc2c1c(-c1ccc3c(c1)OCO3)cn2C1CCN(C2COC2)CC1
- IC50 (JeKo-1): 16.9 µM
- IC50 (Daudi): 24.1 µM
- inhibition [1]: 45.7%
- IC50 (Ramos): 38 µM
- inhibition [2]: 9.5%

Compound: Nc1ncnc2c1c(-c1ccc(Oc3ccccc3)cc1)cn2C[C@H]1CCCN1C(CO)CO
- IC50 (JeKo-1): 14.5 µM
- IC50 (Daudi): 28.2 µM
- inhibition [1]: 54.7%
- IC50 (Ramos): 15.3 µM
- inhibition [2]: 18.3%

Compound: Nc1ncnc2c1c(-c1ccc(Oc3ccccc3)cc1)cn2C[C@H]1CCCN1C[C@@H](O)CO
- IC50 (JeKo-1): 9.54 µM
- IC50 (Daudi): 14.4 µM
- inhibition [1]: 62.5%
- IC50 (Ramos): 13.5 µM
- inhibition [2]: 23.9%

Compound: Nc1ncnc2c1c(-c1ccc(C(=O)Nc3ccc(Oc4ccccc4)cc3)cc1)cn2[C@H]1CCN(C[C@@H]2CO2)C1
- IC50 (JeKo-1): 2.07 µM
- IC50 (Daudi): 4.39 µM
- inhibition [1]: 36.9%
- IC50 (Ramos): 3.63 µM
- inhibition [2]: 7.58%

Compound: Nc1ncnc2c1c(-c1ccc3c(c1)OCO3)cn2C1=CCN(C[C@@H]2CO2)CC1
- IC50 (JeKo-1): 12.8 µM
- IC50 (Daudi): 5.02 µM
- inhibition [1]: 42.6%
- IC50 (Ramos): 2.11 µM
- inhibition [2]: 1.81%

Compound: Nc1ncnc2c1c(-c1cnc3[nH]ccc3c1)cn2C[C@H]1CCCN1C[C@@H]1CO1
- inhibition [1]: 26.9%
- inhibition [2]: 13.7%

Compound: CC1(C(=O)N2CC[C@H](n3cc(-c4ccc5c(c4)OCO5)c4c(N)ncnc43)C2)COC1
- IC50 (JeKo-1): 36.4 µM
- IC50 (Daudi): 30.5 µM
- inhibition [1]: 22.4%
- IC50 (Ramos): 39 µM
- inhibition [2]: -0.35%

Compound: Nc1ncnc2c1c(-c1ccc3c(c1)OCO3)cn2[C@H]1CCN(C(=O)c2ccccn2)C1
- IC50 (JeKo-1): 19.5 µM
- IC50 (Daudi): 12.3 µM
- inhibition [1]: 28.1%
- IC50 (Ramos): 20.7 µM
- inhibition [2]: 1.45%

Compound: C[C@@H]1C[C@H](n2cc(-c3ccc4c(c3)OCO4)c3c(N)ncnc32)CN1C[C@@H]1CO1
- IC50 (JeKo-1): 4.61 µM
- IC50 (Daudi): 10.9 µM
- inhibition [1]: 47.1%
- IC50 (Ramos): 7.97 µM
- inhibition [2]: 12.7%

Compound: Nc1ncnc2c1c(-c1ccc3c(c1)OCO3)cn2C[C@@H]1CCCN(C[C@@H]2CO2)C1
- IC50 (JeKo-1): 8.85 µM
- IC50 (Daudi): 10.5 µM
- inhibition [1]: 49.2%
- IC50 (Ramos): 13.1 µM
- inhibition [2]: 16.2%

Compound: CC(C)(C)c1ccc(C(=O)Nc2cccc(-c3cn([C@H]4CCN(C[C@@H]5CO5)C4)c4ncnc(N)c34)c2)cc1
- IC50 (JeKo-1): 2.54 µM
- IC50 (Daudi): 5.97 µM
- inhibition [1]: 22.2%
- IC50 (Ramos): 4.82 µM
- inhibition [2]: 2.29%

Compound: Nc1ncnc2c1c(-c1ccc(NC(=O)c3ccccc3)cc1)cn2[C@H]1CCN(C[C@@H]2CO2)C1
- IC50 (JeKo-1): 5.39 µM
- IC50 (Daudi): 3.18 µM
- inhibition [1]: 22.9%
- IC50 (Ramos): 2.25 µM
- inhibition [2]: 2.53%

Compound: Nc1ncnc2c1c(-c1ccc3c(c1)OCO3)cn2[C@H]1CCN(S(=O)(=O)C2CC2)C1
- IC50 (JeKo-1): 11.8 µM
- IC50 (Daudi): 16.6 µM
- inhibition [1]: 37.2%
- IC50 (Ramos): 7.79 µM
- inhibition [2]: 1.64%

Compound: Nc1ncnc2c1c(-c1ccc3c(c1)OCO3)cn2[C@H]1CCN(CC2CCCO2)C1 (some centres not stated)
- IC50 (JeKo-1): 3.88 µM
- IC50 (Daudi): 25.9 µM
- inhibition [1]: 18.9%
- IC50 (Ramos): 27.1 µM
- inhibition [2]: 3.01%

Compound: CC(C)(C)c1ccc(COc2ccc(-c3cn([C@H]4CCN(C[C@@H]5CO5)C4)c4ncnc(N)c34)cc2)cc1
- IC50 (JeKo-1): 5.97 µM
- IC50 (Daudi): 6.97 µM
- inhibition [1]: 7.63%
- IC50 (Ramos): 4.21 µM
- inhibition [2]: 3.73%

Compound: Nc1ncnc2c1c(-c1ccc3c(c1)OCO3)cn2[C@H]1CCN(CC2CC2)C1
- IC50 (JeKo-1): 1.45 µM
- IC50 (Daudi): 24.6 µM
- inhibition [1]: 15.2%
- IC50 (Ramos): 16.9 µM
- inhibition [2]: 0.04%

Compound: CC(C)(C)c1ccc(Oc2ccc(-c3cn([C@H]4CCN(C[C@@H]5CO5)C4)c4ncnc(N)c34)cc2)cc1
- IC50 (JeKo-1): 14.8 µM
- IC50 (Daudi): 6.49 µM
- inhibition [1]: 19.1%
- IC50 (Ramos): 11.2 µM
- inhibition [2]: 5.96%

Compound: Nc1ncnc2c1c(-c1cc3ccccc3o1)cn2[C@H]1CCN(C[C@H]2CO2)C1
- IC50 (JeKo-1): 0.63 µM
- IC50 (Daudi): 4.21 µM
- inhibition [1]: 62.9%
- IC50 (Ramos): 1.65 µM
- inhibition [2]: 17.4%

Compound: COCCN1CC[C@H](n2cc(-c3ccc4c(c3)OCO4)c3c(N)ncnc32)C1
- IC50 (JeKo-1): 6.74 µM
- IC50 (Daudi): 4.3 µM
- inhibition [1]: 8.09%
- IC50 (Ramos): 21.2 µM
- inhibition [2]: 14.3%

Compound: Nc1ncnc2c1c(-c1ccc3c(c1)OCO3)nn2C[C@H]1CCCN1C[C@@H]1CO1
- IC50 (JeKo-1): 43.2 µM
- IC50 (Daudi): 30.5 µM
- inhibition [1]: 56.7%
- IC50 (Ramos): 47.4 µM
- inhibition [2]: 13.9%

Compound: Nc1ncnc2c1c(-c1cccc(-n3ncc4ccccc4c3=O)c1)cn2[C@H]1CCN(C[C@@H]2CO2)C1
- IC50 (JeKo-1): 15.2 µM
- IC50 (Daudi): 14.6 µM
- inhibition [1]: 17.5%
- IC50 (Ramos): 15.2 µM
- inhibition [2]: 3.41%

Compound: COC(CN1CC[C@H](n2cc(-c3ccc4c(c3)OCO4)c3c(N)ncnc32)C1)OC
- IC50 (JeKo-1): 2.45 µM
- IC50 (Daudi): 53.5 µM
- inhibition [1]: 37.1%
- IC50 (Ramos): 24.9 µM
- inhibition [2]: 4.71%

Compound: Nc1ncnc2c1c(-c1ccc3c(c1)OCO3)cn2[C@H]1CCN(C(=O)c2ccccc2)C1
- IC50 (JeKo-1): 17 µM
- IC50 (Daudi): 8.26 µM
- inhibition [1]: 29.4%
- IC50 (Ramos): 35.2 µM
- inhibition [2]: 37.1%

Compound: N#CCCN1CC[C@H](n2cc(-c3ccc4c(c3)OCO4)c3c(N)ncnc32)C1
- IC50 (JeKo-1): 1.84 µM
- IC50 (Daudi): 10.2 µM
- inhibition [1]: 67.8%
- IC50 (Ramos): 13.2 µM
- inhibition [2]: 21.6%

Compound: Nc1ncnc2c1c(-c1ccc3c(c1)OCO3)cn2[C@H]1CCN(CCCO)C1
- IC50 (JeKo-1): 3.13 µM
- IC50 (Daudi): 29.6 µM
- inhibition [1]: 22.4%
- IC50 (Ramos): 20.9 µM
- inhibition [2]: 8.43%

Compound: CN(C)C(=O)N1CC[C@H](n2cc(-c3ccc4c(c3)OCO4)c3c(N)ncnc32)C1
- IC50 (JeKo-1): 24.2 µM
- IC50 (Daudi): 14.6 µM
- inhibition [1]: 42.6%
- IC50 (Ramos): 27.7 µM
- inhibition [2]: 1.87%

Compound: CCOC(=O)C(C)N1CC[C@H](n2cc(-c3ccc4c(c3)OCO4)c3c(N)ncnc32)C1 (some centres not stated)
- IC50 (JeKo-1): 1.21 µM
- IC50 (Daudi): 25.5 µM
- inhibition [1]: 44.1%
- IC50 (Ramos): 9.92 µM
- inhibition [2]: 5.71%

Compound: Nc1ncnc2c1c(-c1ccc3c(c1)OCO3)cn2C[C@H]1CCN(C[C@@H]2CO2)C1
- IC50 (JeKo-1): 7.25 µM
- IC50 (Daudi): 15 µM
- inhibition [1]: 63.7%
- IC50 (Ramos): 27 µM
- inhibition [2]: 23.9%

Compound: Nc1ncnc2c1c(-c1ccc3c(c1)OCO3)cn2C1CCN(C[C@@H]2CO2)CC1
- IC50 (JeKo-1): 12.9 µM
- IC50 (Daudi): 21.3 µM
- inhibition [1]: 89.4%
- IC50 (Ramos): 32.8 µM
- inhibition [2]: 60.2%

Compound: Nc1ncnc2c1c(-c1ccc3c(c1)OCO3)cn2CC1CCN(C[C@@H]2CO2)CC1
- IC50 (JeKo-1): 15.3 µM
- IC50 (Daudi): 12.5 µM
- inhibition [1]: 59.9%
- IC50 (Ramos): 10.9 µM
- inhibition [2]: 14.2%

Compound: Nc1ncnc2c1c(-c1ccc3c(c1)OCO3)cn2[C@H]1CCN(Cc2cc(F)cc(F)c2)C1
- IC50 (JeKo-1): 1.69 µM
- IC50 (Daudi): 11.6 µM
- inhibition [1]: 30.2%
- IC50 (Ramos): 6.6 µM
- inhibition [2]: 6.07%

Compound: Nc1ncnc2c1c(-c1ccc3c(c1)OCO3)cn2CC1CCCO1 (configuration not stated)
- IC50 (JeKo-1): 17.1 µM
- IC50 (Daudi): 20.9 µM
- inhibition [1]: 21.8%
- IC50 (Ramos): 24.2 µM
- inhibition [2]: -6.11%

Compound: Nc1ncnc2c1c(-c1cnc3[nH]ccc3c1)cn2[C@H]1CCN(C[C@@H]2CO2)C1
- IC50 (JeKo-1): 9.44 µM
- IC50 (Daudi): 2.99 µM
- inhibition [1]: 46.6%
- IC50 (Ramos): 4.65 µM
- inhibition [2]: 12.8%

Compound: CN(C)CC(=O)N1CC[C@H](n2cc(-c3ccc4c(c3)OCO4)c3c(N)ncnc32)C1
- IC50 (JeKo-1): 28.4 µM
- IC50 (Daudi): 23.1 µM
- inhibition [1]: 23.7%
- IC50 (Ramos): 21 µM
- inhibition [2]: -0.41%
